Data: US9969744B2, “Compounds for use in cognition improvement” (FUNDACIÓN PARA LA INVESTIGACIÓN MÉDICA APLICADA, priority 2014, dated 2018)

Experiments:
PDE9A = target: T1, PDE9A (Homo sapiens, UniProt O76083); assay: PDE enzyme activity assay (HTRF cGMP), PDE9A; assay type: biochemical; details: recombinant enzyme; read-out: PDE9A inhibition (IC50)
T1 construct: they are full-length with N-terminal GST tag; GST (N); purchased BPS Biosciences 60090; host or cells: baculovirus infected Sf9 cells
T1 sequence (O76083 1-533 isoform O76083-2): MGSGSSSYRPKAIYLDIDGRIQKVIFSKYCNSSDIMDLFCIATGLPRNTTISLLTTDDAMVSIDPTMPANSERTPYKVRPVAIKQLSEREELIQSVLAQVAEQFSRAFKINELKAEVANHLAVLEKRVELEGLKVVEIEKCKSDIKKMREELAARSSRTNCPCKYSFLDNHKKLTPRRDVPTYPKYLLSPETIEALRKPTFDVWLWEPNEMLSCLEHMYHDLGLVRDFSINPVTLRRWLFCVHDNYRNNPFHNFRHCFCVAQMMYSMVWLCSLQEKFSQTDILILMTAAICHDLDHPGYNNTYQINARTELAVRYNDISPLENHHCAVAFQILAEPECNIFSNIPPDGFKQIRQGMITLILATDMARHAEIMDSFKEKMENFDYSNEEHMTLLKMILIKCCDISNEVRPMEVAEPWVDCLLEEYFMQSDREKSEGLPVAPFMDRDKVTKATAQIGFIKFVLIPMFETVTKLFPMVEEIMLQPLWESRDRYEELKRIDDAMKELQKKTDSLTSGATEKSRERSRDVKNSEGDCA

[1] = system: acetylated histone 3 at Lys9 (AcH3K9); assay: HDAC activity using SHSY-5Y cell line (Western blot, histone 3 acetylation); assay type: cell-based, human; parameters: key: basal x1 means no increment (+); basal x1.4≤(++)<basal x2; basal x2≤(+++)<basal x3; basal x3≤(++++); N.E. means No Effect; details: SHSY-5Y cells, 24 hours, compound concentration 1 μM
Description: HDAC inhibition leads to the corresponding functional response, increase in AcH3 level. Therefore, the cellular assay to conclude HDAC activity was assessed by Western blot analysis using specific antibodies against acetylated histone 3 at Lys9 (AcH3K9). Cell cultures were treated at 100 nM, 500 nM, 1 μM and/or 5 μM with compounds of the invention or known PDE inhibitors during 24 hours and, Table 1 (below) describes the functional activity: histone 3 acetylation level (AcH3) vs basal (no treatment).
A human neuroblastoma cell line (SHSY-5Y) was used. Cell line was obtained from ATCC (CRL-2266) and cultured in 35 mm plates (Becton Dickinson, NJ).
The cells were grown to 90% confluence at 37° C. in an atmosphere of 5% CO2 and in Dulbecco's modified Eagle's medium supplemented with Glutamax (Gibco, Invitrogen, CA), 100 units/ml penicillin/streptomycin, 1×MEM nonessential amino acids and 10% fetal bovine serum (Gibco, Invitrogen, CA).
Cells were collected and sonicated in a buffer containing a cold lysis buffer with protease inhibitors (0.2 M NaCl, 0.1 M HEPES (4-(2-hydroxyethyl)-1-piperazineethanesulfonic acid), 10% glycerol, 200 mM NaF, 2 mM Na4P2O7, 5 mM EDTA (ethylenediaminetetraacetic acid), 1 mM EGTA (ethylene glycol tetraacetic acid), 2 mM DTT (dithiothreitol), 0.5 mM PMSF (phenylmethylsulfonyl fluoride), 1 mM Na3VO4 and Complete Protease Inhibitor Cocktail, Roche Diagnostics), centrifuged at 14,000×g 4° C. for 20 min and the supernatant was aliquoted and stored at −80° C. Total protein concentrations were determined using the BioRad Bradford protein assay (BioRad Laboratories).
Protein samples were mixed with Laemmli sample buffer, resolved onto Sodium Dodecyl Sulfate (SDS)-polyacrylamide gels and transferred to nitrocellulose membrane. The membranes were blocked with 5% milk, 0.05% Tween-20 in PBS (Phosphate-Buffered Saline) or TBS (Tris-Buffered Saline) followed by overnight incubation with the following primary antibodies: rabbit polyclonal anti-acetylated Histone 3 (acetyl K9) (Cell Signalling Technology), rabbit polyclonal anti-total Histone 3 (Millipore), in the corresponding buffer. All the antibodies were used at 1:1000 dilution except the mouse monoclonal anti-β-actin which was used at 1:50.000. Following two washes in TBS/Tween20 and one wash in TBS alone, immunolabeled protein bands were detected by using HRP-conjugated anti-rabbit or anti-mouse antibody (Santa Cruz Biotechnology; dilution 1:5.000) following an enhanced chemiluminescence system (ECL, GE Healthcare Bioscience, Buckinghamshire, UK), and autoradiographic exposure to HyperfilmtECL (GE Healthcare Bioscience). Quantity One™ software v.4.6.3 (Bio-Rad) was used for quantification.

[2] = system: phosphorylated tau (p-Tau); assay: AD-related markers in Tg2576 neurons: pTau; assay type: cell-based, mouse; details: Mus musculus, Primary neuron, references, read-out: pTau EC50 (50% decrease in pTau levels over basal)
Description: The effects of the compounds on amyloid pathology were analysed in primary cultures after 21 days in-vitro (DIV) of neurons derived from the hippocampus and cortex of Tg2576 mouse embryos. Tg2576 mice express the human 695-aa isoform of APP (hAPP) containing the Swedish double mutation, which favours A3 production. Neurons were treated for two days and collected at day 3, 24 h after the last treatment. First it was analysed the effect of the compounds on hAPP processing by the amyloidogenic pathway by measuring the carboxyl terminal fragment AβPP (C99), which is the precursor of Aβ42. […]
It was next analyzed the effect of the compounds on levels of phosphorylated tau (p-Tau) in the same samples, another marker of AD, using a phospho-specific antibody (AT8) that recognizes hyperphosphorylated epitopes on Ser202/Thr205. […]
To analyze APP-derived fragments and p-Tau levels in primary neuronal cultures, cells were collected in a buffer containing SDS (2%), Tris-HCl (10 mM, pH 7.4), protease inhibitors (1 mM phenylmethylsulfonyl fluoride (PMSF) and Complete Protease Inhibitor Cocktail: Roche Diagnostics) and phosphatase inhibitors (0.1 mM Na3VO4 and 1 mM NaF). […] Aliquots of the supernatant were frozen at […] and their protein concentrations determined by the Bradford method using the Bio-Rad protein assay (Bio-Rad, Hercules, Calif., USA). […]

pCREB = assay: In-vivo pCREB in hippocampus of wild type mice; details: single dose of 1 mg/Kg i.p.
Description: (§1) Another group of animals received the vehicle (1/1/8, v:v:v, DMSO/Tween 20/saline). One hour later, mice were sacrificed by cervical dislocation and their hippocampus was quickly dissected from the brains. Total tissue homogenates were obtained by homogenizing the hippocampus in a cold lysis buffer with protease inhibitors (0.2 M NaCl, 0.1 M HEPES, 10% glycerol, 200 mM NaF, 2 mM Na4P2O7, 5 mM EDTA, 1 mM EGTA, 2 mM DTT, 0.5 mM PMSF, 1 mM Na3VO4 and Complete Protease Inhibitor Cocktail, Roche Diagnostics). The homogenate was then centrifuged at 14,000×g at 4° C. for 20 min and the supernatant aliquoted and stored at −80° C. Total protein concentrations were determined using the BioRad Bradford protein assay (BioRad Laboratories). Protein samples were analyzed as described in the “in vitro” section.

AcH3 = assay: In-vivo AcH3 in hippocampus of wild type mice; parameters: key: basal x1 means no increment (+); basal x1.4≤(++)<basal x2; basal x2≤(+++)<basal x3; basal x3≤(++++); N.E. means No Effect; details: single dose of 1 mg/Kg i.p.
Description: as §1

pTau = assay: AD-related markers in Tg2576 mice: pTau; assay type: in vivo; details: hippocampal homogenates, footnote: single dose of 1 mg/Kg i.p.

IC50 (PDE9A): > 10000 nM
EC50 [2]: 10 to 1000 nM
Structure (SMILES): CN1CC(=O)N2[C@H](c3ccc4c(c3)OCO4)c3[nH]c4ccccc4c3C[C@@H]2C1=O [Tadalafil]
AcH3: increment in Histone 3 acetylation level vs basal [1]: N.E.
pCREB increment vs basal (pCREB): +++ (basal x2≤(+++)<basal x3)
AcH3 increment vs basal (AcH3): N.E.
pTau biological response vs basal (pTau): +++ (basal x2≤(+++)<basal x3)
